Test results taken from BindingDB's records for doi:10.1016/j.bmcl.2004.02.025 (Universidade Federal De Minas Gerais, 2004).

How the values were obtained:
[1] = Inhibitory concentration of compound against glyceraldehyde-3-phosphate dehydrogenase was determined
[2] = Inhibitory concentration against glyceraldehyde-3-phosphate dehydrogenase was determined as log 1/IC50
[3] = as above; remark: listed apart in the source

Row | Structure (SMILES) | IC50 [3] [µM] | other results
1 | COc1cccc(C(=O)NC2C(O)[C@@H](COP(=O)(O)O)O[C@H]2n2cnc3c(NCc4cccc5ccccc45)ncnc32)c1 (stereo partly drawn) [Phosphoric acid mono-((2R,5R)-3-hydroxy-4-(3-methoxy-benzoylamino)-5-{6-[(naphthalen-1-ylmethyl)-amino]-purin-9-yl}-tetrahydro-furan-2-ylmethyl) ester] | – | IC50 [1]: 5 µM
2 | C=CC(C)(C)c1cc2cc3c(cc2oc1=O)O[C@H](C(C)(C)O)C3 [Chalepin] | – | IC50 [2]: 55 µM
3 | O=c1oc2ccc(/N=C/c3ccc[nH]3)cc2cc1-c1ccc2c(c1)OCO2 | 56.2 | –
4 | CCOC(=O)c1cn([C@@H]2O[C@H](COC(=O)c3ccccc3)[C@@H](OC(=O)c3ccccc3)[C@H]2OC(=O)c2ccccc2)c2ccc(Cl)cc2c1=O | – | IC50 [1]: 29 µM
5 | O=c1oc2ccccc2cc1-c1cccc(O)c1 | 67.6 | –
6 | O=c1ccc2ccccc2o1 [2H-chromen-2-one] | 692 | –
7 | O=c1oc2ccc(/N=C/c3ccco3)cc2cc1-c1ccc2c(c1)OCO2 | 56.2 | –
8 | O=c1ccc2ccc(O)cc2o1 [umbelliferone] | 617 | –
9 | C=C(C)[C@H]1O[C@@H]1c1c(O)ccc2ccc(=O)oc12 | 129 | –
10 | COc1cccc(C(=O)NC2C(O)[C@@H](CO)O[C@H]2n2cnc3c(NCc4cccc5ccccc45)ncnc32)c1 (stereo partly drawn) [N-((2R,5R)-4-Hydroxy-5-hydroxymethyl-2-{6-[(naphthalen-1-ylmethyl)-amino]-purin-9-yl}-tetrahydro-furan-3-yl)-3-methoxy-benzamide] | – | IC50 [1]: 12 µM
11 | CC1(C)C=Cc2c(ccc3ccc(=O)oc23)O1 | 123 | –
12 | CC(=O)Oc1ccc2oc(=O)c(-c3ccccc3)cc2c1 | 123 | –
13 | COc1c2c(cc3oc(=O)ccc13)OCC2 | 347 | –
14 | CC1=C2c3c(ccc4ccc(=O)oc34)OCC2OC1=O (centres undefined) | 74.1 | –
15 | C=CC(C)(C)c1cc2ccc(O)cc2oc1=O | 162 | –
16 | COc1cc2ccc(=O)oc2cc1O [7-hydroxy-6-methoxy-2H-chromen-2-one] | 257 | –
17 | O=c1oc2c(O)cccc2cc1-c1ccc2c(c1)OCO2 | 30.9 | –
18 | CC(=O)Oc1cccc(-c2cc3cc(OC(C)=O)ccc3oc2=O)c1 | 17 | –
19 | COc1ccc2ccc(=O)oc2c1CC=C(C)C [osthole] | 209 | –
20 | C=C(C)[C@@H]1Cc2c(cc(O)c3ccc(=O)oc23)O1 | 191 | –
21 | CC(=O)Oc1ccc2oc(=O)c(-c3ccc4c(c3)OCO4)cc2c1 | 64.6 | –
22 | O=c1oc2ccccc2cc1-c1ccc(O)cc1 [3-(4-Hydroxy-phenyl)-chromen-2-one] | 38.9 | –
23 | C=C(C)[C@H]1Cc2cc3ccc(=O)oc3cc2O1 | 145 | –
24 | CC(=O)Oc1ccc(-c2cc3cc(OC(C)=O)c(OC(C)=O)cc3oc2=O)cc1OC(C)=O [6,7-diacetoxy-3-[30,40-diacetoxyphenyl]-coumarin] | 17.8 | –
25 | CC1(C)C=Cc2cc3ccc(=O)oc3cc2O1 [8,8-Dimethyl-8H-pyrano[3,2-g]chromen-2-one] | 195 | –
26 | COc1cccc(C(=O)NC2C(O)[C@@H](COP(=O)([O-])OP(=O)(O)OC[C@H]3O[C@@H]([n+]4ccc(C(N)=O)cc4)C(O)C3O)O[C@H]2n2cnc3c(NCc4cccc5ccccc45)ncnc32)c1 (some centres undefined) [Adenosine analogue] | – | IC50 [1]: 0.1 µM
27 | CC(=O)Oc1ccc(-c2cc3cc(OC(C)=O)ccc3oc2=O)cc1 | 52.5 | –
28 | COc1ccc(-n2nc3c4ccccc4n([C@@H]4O[C@H](COC(=O)c5ccccc5)[C@@H](OC(=O)c5ccccc5)[C@H]4OC(=O)c4ccccc4)cc-3c2=O)cc1 [Adenosine analogue] | – | IC50 [1]: 45 µM
29 | COc1cccc(-c2cc3cc(OC(C)=O)ccc3oc2=O)c1 | 85.1 | –
